Source: US9604975B2, “Indolyl-pyridone derivatives having checkpoint kinase 1 inhibitory activity” (Vernalis (R&D) Ltd., priority 2009, dated 2017)

Molecular target: T1, CHK1 (Homo sapiens, UniProt O14757)
T1 construct: His; purchased Invitrogen
T1 sequence (O14757 1-476): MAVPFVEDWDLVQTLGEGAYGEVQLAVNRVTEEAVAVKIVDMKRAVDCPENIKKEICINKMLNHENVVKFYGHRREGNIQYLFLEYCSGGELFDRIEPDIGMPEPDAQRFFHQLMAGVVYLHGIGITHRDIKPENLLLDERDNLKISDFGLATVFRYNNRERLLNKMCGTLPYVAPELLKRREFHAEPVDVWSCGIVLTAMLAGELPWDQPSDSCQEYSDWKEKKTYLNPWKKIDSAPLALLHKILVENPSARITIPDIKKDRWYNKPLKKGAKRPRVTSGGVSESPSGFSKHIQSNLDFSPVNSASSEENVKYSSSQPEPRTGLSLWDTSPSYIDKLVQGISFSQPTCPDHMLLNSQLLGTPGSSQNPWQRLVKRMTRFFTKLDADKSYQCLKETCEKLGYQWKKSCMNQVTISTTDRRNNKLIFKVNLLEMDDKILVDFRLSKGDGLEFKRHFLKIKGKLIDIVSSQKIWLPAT
Experiment: CHK1 Enzyme Assay (phosphorylation of Chktide peptide, 33P-ATP filter assay)
Type: biochemical
Settings: 12.5 nM His-CHK1, 0.01 mM ATP, 40 minutes at 30° C.; read-out: CHK1 Enzyme Activity (IC50 range)
Method in brief: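 Filter-binding radiometric readout of 33P incorporation into Chktide (14.8 μM), after a 40 min, 30 °C reaction at pH 7.5 (50 mM Hepes-NaOH, 0.1 mg/mL BSA). The reaction contained 12.5 nM His-tagged CHK1, inhibitor and 0.01 mM cold ATP plus labelled ATP.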

O=C(Nc1c[nH]c(=O)c(-c2cc3cc(CN4CCCCC4)ccc3[nH]2)c1)c1cnn(CCc2ccc(F)cc2)c1 [Example 95, 1-[2-(4-Fluoro-phenyl)-ethyl]-1H-pyrazole-4-carboxylic acid [6-oxo-5-(5-piperidin-1-ylmethyl-1H-indol-2-yl)-1,6-dihydro-pyridin-3-yl]-amide]
IC50: < 100 nM

O=C(Nc1c[nH]c(=O)c(-c2cc3cc(CN4CCC(F)CC4)ccc3[nH]2)c1)c1cnn(CCc2ccc(F)cc2)c1 [Example 96, 1-[2-(4-Fluoro-phenyl)-ethyl]-1H-pyrazole-4-carboxylic acid {5-[5-(4-fluoro-piperidin-1-ylmethyl)-1H-indol-2-yl]-6-oxo-1,6-dihydro-pyridin-3-yl}-amide]
IC50: < 100 nM

O=C(Nc1cnn(Cc2ccc(F)c(F)c2)c1)c1c[nH]c(=O)c(-c2cc3cc(CN4CCC(F)CC4)ccc3[nH]2)c1 [Example 97, 5-[5-(4-Fluoro-piperidin-1-ylmethyl)-1H-indol-2-yl]-6-oxo-1,6-dihydro-pyridine-3-carboxylic acid [1-(3,4-difluoro-benzyl)-1H-pyrazol-4-yl]-amide]
IC50: < 100 nM

O=C(Nc1cnn(Cc2ccc(F)c(F)c2)c1)c1c[nH]c(=O)c(-c2cc3cc(CN4CCCC4)ccc3[nH]2)c1 [Example 98, 6-oxo-5-(5-pyrrolidin-1-ylmethyl-1H-indol-2-yl)-1,6-dihydro-pyridine-3-carboxylic acid [1-(3,4-difluoro-benzyl)-1H-pyrazol-4-yl]-amide]
IC50: < 100 nM

O=C(Nc1cnn(Cc2ccc(F)c(F)c2)c1)c1c[nH]c(=O)c(-c2cc3cc(CN4CCOCC4)ccc3[nH]2)c1 [Example 99, 5-(5-Morpholin-4-ylmethyl-1H-indol-2-yl)-6-oxo-1,6-dihydro-pyridine-3-carboxylic acid [1-(3,4-difluoro-benzyl)-1H-pyrazol-4-yl]-amide]
IC50: < 100 nM

O=C(Nc1cnn(Cc2ccc(F)c(F)c2)c1)c1c[nH]c(=O)c(-c2cc3cc(CN4CCC(O)CC4)ccc3[nH]2)c1 [Example 100, 5-[5-(4-Hydroxypiperidin-1-ylmethyl)-1H-indol-2yl]-6-oxo-1,6-dihydropyridine-3-carboxylic acid[1-(3,4-difluorobenzyl)-1H-pyrazol-4-yl]-amide]
IC50: < 100 nM

CN(CCO)Cc1ccc2[nH]c(-c3cc(C(=O)Nc4cnn(Cc5ccc(F)c(F)c5)c4)c[nH]c3=O)cc2c1 [Example 101, 5-(5-{[(2-hydroxyethyl)-methylamino]-methyl}-1H-indol-2yl)-6-oxo-1,6-dihydropyridine-3-carboxylic acid[1-(3,4-difluorobenzyl)-1H-pyrazol-4-yl]-amide]
IC50: < 100 nM

CCN(CCO)Cc1ccc2[nH]c(-c3cc(C(=O)Nc4cnn(Cc5ccc(F)c(F)c5)c4)c[nH]c3=O)cc2c1 [Example 102, 5-(5-{[Ethyl-(2-hydroxyethyl)amino]-methyl}-1H-indol-2yl)-6-oxo-1,6-dihydropyridine-3-carboxylic acid[1-(3,4-difluorobenzyl)-1H-pyrazol-4-yl]-amide]
IC50: < 100 nM

O=C(Nc1cnn(Cc2ccc(F)c(F)c2)c1)c1c[nH]c(=O)c(-c2cc3cc(CNCCO)ccc3[nH]2)c1 [Example 103, 5-{5-[(2-Hydroxyethylamino)-methyl]-1H-indol-2yl}-6-oxo-1,6-dihydropyridine-3-carboxylic acid[1-(3,4-difluorobenzyl)-1H-pyrazol-4-yl]-amide]
IC50: < 100 nM

CN1CCN(Cc2ccc3[nH]c(-c4cc(C(=O)Nc5cnn(Cc6ccc(F)c(F)c6)c5)c[nH]c4=O)cc3c2)CC1 [Example 104, 5-[5-(4-Methyl-piperazin-1-ylmethyl)-1H-indol-2-yl]-6-oxo-1,6-dihydro-pyridine-3-carboxylic acid [1-(3,4-difluoro-benzyl)-1H-pyrazol-4-yl]-amide]
IC50: < 100 nM

O=C(Nc1cnn(Cc2ccc(F)c(F)c2)c1)c1c[nH]c(=O)c(-c2cc3cc(CN4CCN(CCO)CC4)ccc3[nH]2)c1 [Example 105, 5-{5-[4-(2-Hydroxyethyl)-piperazin-1-ylmethyl]-1H-indol-2yl}-6-oxo-1,6-dihydropyridine-3-carboxylic acid[1-(3,4-difluorobenzyl)-1H-pyrazol-4-yl]-amide]
IC50: < 100 nM

CN(C)Cc1cccc2[nH]c(-c3cc(NC(=O)c4cnn(Cc5ccccc5)c4)c[nH]c3=O)cc12 [Example 106, 1-Benzyl-1H-pyrazole-4-carboxylic acid [5-(4-dimethylaminomethyl-1H-indol-2-yl)-6-oxo-1,6-dihydro-pyridin-3-yl]-amide]
IC50: < 100 nM

CN1CCN(Cc2cccc3[nH]c(-c4cc(NC(=O)c5cnn(Cc6ccccc6)c5)c[nH]c4=O)cc23)CC1 [Example 107, 1-Benzyl-1H-pyrazole-4-carboxylic acid {5-[4-(4-methyl-piperazin-1-ylmethyl)-1H-indol-2-yl]-6-oxo-1,6-dihydro-pyridin-3-yl}-amide]
IC50: < 100 nM

O=C(Nc1c[nH]c(=O)c(-c2cc3c(CN4CCCCC4)cccc3[nH]2)c1)c1cnn(Cc2ccccc2)c1 [Example 108, 1-Benzyl-1H-pyrazole-4-carboxylic acid [6-oxo-5-(4-piperidin-1-ylmethyl-1H-indol-2-yl)-1,6-dihydro-pyridin-3-yl]-amide]
IC50: < 100 nM

C[C@@H]1CN(Cc2cccc3[nH]c(-c4cc(NC(=O)c5cnn(Cc6ccccc6)c5)c[nH]c4=O)cc23)C[C@H](C)O1 [Example 109, 1-Benzyl-1H-pyrazole-4-carboxylic acid {5-[4-(cis-2,6-dimethyl-morpholin-4-ylmethyl)-1H-indol-2-yl]-6-oxo-1,6-dihydro-pyridin-3-yl}-amide]
IC50: < 100 nM

O=C(Nc1cnn(Cc2ccc(F)nc2)c1)c1c[nH]c(=O)c(-c2cc3ccccc3[nH]2)c1 [Example 110, 5-(1H-Indol-2-yl)-6-oxo-1,6-dihydro-pyridine-3-carboxylic acid [1-(6-fluoro-pyridin-3-ylmethyl)-1H-pyrazol-4-yl]-amide]
IC50: 100 to 500 nM

O=C(Nc1c[nH]c(=O)c(-c2cc3ccccc3[nH]2)c1)c1cnn(Cc2ccc(F)nc2)c1 [Example 111, 1-(6-Fluoro-pyridin-3-ylmethyl)-1H-pyrazole-4-carboxylic acid [5-(1H-indol-2-yl)-6-oxo-1,6-dihydro-pyridin-3-yl]-amide]
IC50: < 100 nM

Cc1ccc(Cn2cc(C(=O)Nc3c[nH]c(=O)c(-c4cc5cc(N6CCN(C)CC6)ccc5[nH]4)c3)cn2)cc1 [Example 112, 1-(4-Methyl-benzyl)-1H-pyrazole-4-carboxylic acid {5-[5-(4-methyl-piperazin-1-yl)-1H-indol-2-yl]-6-oxo-1,6-dihydro-pyridin-3-yl}-amide]
IC50: < 100 nM

CN1CCN(c2ccc3[nH]c(-c4cc(NC(=O)c5cnn(Cc6ccccc6)c5)c[nH]c4=O)cc3c2)CC1 [Example 113, 1-Benzyl-1H-pyrazole-4-carboxylic acid {5-[5-(4-methyl-piperazin-1-yl)-1H-indol-2-yl]-6-oxo-1,6-dihydro-pyridin-3-yl}-amide]
IC50: < 100 nM

CN1CCN(c2ccc3[nH]c(-c4cc(NC(=O)c5cnn(Cc6ccc(F)cc6)c5)c[nH]c4=O)cc3c2)CC1 [Example 114, 1-(4-Fluoro-benzyl)-1H-pyrazole-4-carboxylic acid {5-[5-(4-methyl-piperazin-1-yl)-1H-indol-2-yl]-6-oxo-1,6-dihydro-pyridin-3-yl}-amide]
IC50: < 100 nM

Cc1ccc(Cn2cc(C(=O)Nc3c[nH]c(=O)c(-c4cc5cc(OCCN6CCCCC6)ccc5[nH]4)c3)cn2)cc1 [Example 115, 1-(4-Methyl-benzyl)-1H-pyrazole-4-carboxylic acid {6-oxo-5-[5-(2-piperidin-1-yl-ethoxy)-1H-indol-2-yl]-1,6-dihydro-pyridin-3-yl}-amide]
IC50: < 100 nM

Cc1ccc(Cn2cc(C(=O)Nc3c[nH]c(=O)c(-c4cc5cc(OCCN6CCCC(F)C6)ccc5[nH]4)c3)cn2)cc1 (stereo not shown) [Example 116, 1-(4-Methyl-benzyl)-1H-pyrazole-4-carboxylic acid (5-{5-[2-(3-fluoro-piperidin-1-yl)-ethoxy]-1H-indol-2-yl}-6-oxo-1,6-dihydro-pyridin-3-yl)-amide]
IC50: < 100 nM

Cc1ccc(Cn2cc(C(=O)Nc3c[nH]c(=O)c(-c4cc5cc(OCCCN6CCOCC6)ccc5[nH]4)c3)cn2)cc1 [Example 117, 1-(4-Methyl-benzyl)-1H-pyrazole-4-carboxylic acid {5-[5-(3-morpholin-4-yl-propoxy)-1H-indol-2-yl]-6-oxo-1,6-dihydro-pyridin-3-yl}-amide]
IC50: < 100 nM

Cc1ccc(Cn2cc(C(=O)Nc3c[nH]c(=O)c(-c4cc5cc(OCCN6CCOCC6)ccc5[nH]4)c3)cn2)cc1 [Example 118, 1-(4-Methyl-benzyl)-1H-pyrazole-4-carboxylic acid {5-[5-(2-morpholin-4-yl-ethoxy)-1H-indol-2-yl]-6-oxo-1,6-dihydro-pyridin-3-yl}-amide]
IC50: < 100 nM

Cc1ccc(Cn2cc(C(=O)Nc3c[nH]c(=O)c(-c4cc5cc(OCCCN6CCCCC6)ccc5[nH]4)c3)cn2)cc1 [Example 119, 1-(4-Methyl-benzyl)-1H-pyrazole-4-carboxylic acid {6-oxo-5-[5-(3-piperidin-1-yl-propoxy)-1H-indol-2-yl]-1,6-dihydro-pyridin-3-yl}-amide]
IC50: < 100 nM
